According to the NIST ThermoML archive (doi:10.1021/je100175j):
± gives the expanded uncertainty stated by the source.

What was measured:
[1] = Molar enthalpy of transition or fusion; details: Crystal; DSC
[2] = for Triple point temperature: DTA

NC(=O)c1ccccc1 [benzamide]
Details | Molar enthalpy of transition or fusion [kcal/mol]
[1] | 5.54 ± 0.127

[2]
Details | vapor or sublimation pressure [kPa]
324.11 K, Crystal, Calculated from knudsen effusion weight loss | 0.000108 ± 2e-05
326.19 K, Crystal, Calculated from knudsen effusion weight loss | 0.000136 ± 2.1e-05
328.19 K, Crystal, Calculated from knudsen effusion weight loss | 0.000169 ± 2.1e-05
330.1 K, Crystal, Calculated from knudsen effusion weight loss | 0.000215 ± 2.1e-05
332.16 K, Crystal, Calculated from knudsen effusion weight loss | 0.000267 ± 2.2e-05
334.18 K, Crystal, Calculated from knudsen effusion weight loss | 0.000332 ± 2.3e-05
336.1 K, Crystal, Calculated from knudsen effusion weight loss | 0.000415 ± 2.5e-05
338.17 K, Crystal, Calculated from knudsen effusion weight loss | 0.000513 ± 2.7e-05
340.19 K, Crystal, Calculated from knudsen effusion weight loss | 0.000634 ± 3e-05
342.11 K, Crystal, Calculated from knudsen effusion weight loss | 0.000794 ± 3.5e-05
344.18 K, Crystal, Calculated from knudsen effusion weight loss | 0.000981 ± 4e-05
344.8 K, Crystal, Closed cell (Static) method | 0.0011 ± 0.00012
346.18 K, Crystal, Calculated from knudsen effusion weight loss | 0.001205 ± 9.7e-05
346.78 K, Crystal, Closed cell (Static) method | 0.00135 ± 0.00013
348.77 K, Crystal, Closed cell (Static) method | 0.00166 ± 0.00013
350.76 K, Crystal, Closed cell (Static) method | 0.00204 ± 0.00014
352.74 K, Crystal, Closed cell (Static) method | 0.00247 ± 0.00015
354.72 K, Crystal, Closed cell (Static) method | 0.00301 ± 0.00017
356.71 K, Crystal, Closed cell (Static) method | 0.00366 ± 0.00019
358.69 K, Crystal, Closed cell (Static) method | 0.00438 ± 0.00021
360.68 K, Crystal, Closed cell (Static) method | 0.00534 ± 0.00024
362.68 K, Crystal, Closed cell (Static) method | 0.00631 ± 0.00028
364.64 K, Crystal, Closed cell (Static) method | 0.00769 ± 0.00033
366.62 K, Crystal, Closed cell (Static) method | 0.00906 ± 0.00038
368.6 K, Crystal, Closed cell (Static) method | 0.01095 ± 0.00045
370.59 K, Crystal, Closed cell (Static) method | 0.01299 ± 0.00052
372.59 K, Crystal, Closed cell (Static) method | 0.01556 ± 0.00056
374.55 K, Crystal, Closed cell (Static) method | 0.01829 ± 0.0006
376.53 K, Crystal, Closed cell (Static) method | 0.02177 ± 0.00065
378.52 K, Crystal, Closed cell (Static) method | 0.02586 ± 0.00072
380.43 K, Liquid, Closed cell (Static) method | 0.04263 ± 0.00097
380.48 K, Crystal, Closed cell (Static) method | 0.03068 ± 0.00079
382.43 K, Liquid, Closed cell (Static) method | 0.0481 ± 0.0011
382.47 K, Crystal, Closed cell (Static) method | 0.03596 ± 0.00087
384.38 K, Liquid, Closed cell (Static) method | 0.05455 ± 0.0012
384.44 K, Crystal, Closed cell (Static) method | 0.04227 ± 0.00097
386.42 K, Crystal, Closed cell (Static) method | 0.04949 ± 0.0011
386.56 K, Liquid, Closed cell (Static) method | 0.06285 ± 0.0013
388.3 K, Liquid, Closed cell (Static) method | 0.0702 ± 0.0014
388.4 K, Crystal, Closed cell (Static) method | 0.058 ± 0.0012
390.38 K, Crystal, Closed cell (Static) method | 0.06796 ± 0.0014
390.51 K, Liquid, Closed cell (Static) method | 0.08051 ± 0.0016
392.28 K, Liquid, Closed cell (Static) method | 0.0897 ± 0.0017
392.32 K, Crystal, Closed cell (Static) method | 0.07856 ± 0.0015
394.32 K, Crystal, Closed cell (Static) method | 0.09224 ± 0.0017
394.51 K, Liquid, Closed cell (Static) method | 0.102 ± 0.0019
396.37 K, Liquid, Closed cell (Static) method | 0.1144 ± 0.0021
398.34 K, Liquid, Closed cell (Static) method | 0.129 ± 0.0023
400.4 K, Liquid, Closed cell (Static) method | 0.1453 ± 0.0021
402.25 K, Liquid, Closed cell (Static) method | 0.1597 ± 0.0023
404.42 K, Liquid, Closed cell (Static) method | 0.1805 ± 0.0024
406.32 K, Liquid, Closed cell (Static) method | 0.1992 ± 0.0026
408.4 K, Liquid, Closed cell (Static) method | 0.2257 ± 0.0028
410.17 K, Liquid, Closed cell (Static) method | 0.2479 ± 0.003
412.21 K, Liquid, Closed cell (Static) method | 0.279 ± 0.0032
414.31 K, Liquid, Closed cell (Static) method | 0.3088 ± 0.0035
416.23 K, Liquid, Closed cell (Static) method | 0.3462 ± 0.0038
418.37 K, Liquid, Closed cell (Static) method | 0.3819 ± 0.0041
420.28 K, Liquid, Closed cell (Static) method | 0.4246 ± 0.0045
422.2 K, Liquid, Closed cell (Static) method | 0.4667 ± 0.0048
424.23 K, Liquid, Closed cell (Static) method | 0.5208 ± 0.0053
426.18 K, Liquid, Closed cell (Static) method | 0.5676 ± 0.0057
428.17 K, Liquid, Closed cell (Static) method | 0.6262 ± 0.0062
430.15 K, Liquid, Closed cell (Static) method | 0.6836 ± 0.0067
432.17 K, Liquid, Closed cell (Static) method | 0.7596 ± 0.0074
434.17 K, Liquid, Closed cell (Static) method | 0.8264 ± 0.008
436.2 K, Liquid, Closed cell (Static) method | 0.922 ± 0.0088
438.2 K, Liquid, Closed cell (Static) method | 1.002 ± 0.009

Details | Triple point temperature [K]
[2], Crystal | 401.34 ± 0.49

CN(C)C(=O)c1ccccc1 [N,N-dimethylbenzamide]
Details | Molar enthalpy of transition or fusion [kcal/mol]
[1] | 5.07 ± 0.117

[2], Crystal
Details | vapor or sublimation pressure [kPa]
297.04 K | 0.00054 ± 0.0001
299.03 K | 0.00069 ± 0.0001
301.02 K | 0.00086 ± 0.0001
303.02 K | 0.0011 ± 0.00011
305 K | 0.00138 ± 0.00011
307 K | 0.00171 ± 0.00011
308.98 K | 0.00215 ± 0.00011
310.98 K | 0.00269 ± 0.00012
312.98 K | 0.00336 ± 0.00012
314.98 K | 0.00418 ± 0.00013

[2], Liquid, Closed cell (Static) method
Details | vapor or sublimation pressure [kPa]
301.98 K | 0.00134 ± 0.00012
303.99 K | 0.00162 ± 0.00012
305.97 K | 0.00195 ± 0.00013
307.96 K | 0.00232 ± 0.00014
310.43 K | 0.00289 ± 0.00016
312.3 K | 0.00343 ± 0.00017
314 K | 0.00399 ± 0.00019
316 K | 0.00472 ± 0.00021
317.97 K | 0.0056 ± 0.00025
319.95 K | 0.00658 ± 0.00028
321.94 K | 0.00776 ± 0.00032
323.93 K | 0.00909 ± 0.00037
325.88 K | 0.01066 ± 0.00043
327.91 K | 0.01239 ± 0.0005
329.85 K | 0.01439 ± 0.00054
331.88 K | 0.01676 ± 0.00057
333.84 K | 0.01949 ± 0.00061
335.85 K | 0.02238 ± 0.00066
337.8 K | 0.02598 ± 0.00071
339.82 K | 0.02969 ± 0.00077
341.77 K | 0.03432 ± 0.00084
343.8 K | 0.03916 ± 0.00092
345.73 K | 0.04503 ± 0.001
347.77 K | 0.05151 ± 0.0011
349.68 K | 0.05866 ± 0.0012
351.75 K | 0.06697 ± 0.0014
353.64 K | 0.07571 ± 0.0015
355.7 K | 0.08611 ± 0.0016
357.62 K | 0.09722 ± 0.0018
359.68 K | 0.1102 ± 0.002
361.66 K | 0.1244 ± 0.0022

Details | Triple point temperature [K]
[2], Crystal | 316.9 ± 0.41

CNC(=O)c1ccccc1 [N-methylbenzamide]
Details | Molar enthalpy of transition or fusion [kcal/mol]
[1] | 4.45 ± 0.136

[2], Liquid, Closed cell (Static) method
Details | vapor or sublimation pressure [kPa]
322.88 K | 0.00067 ± 0.00011
324.94 K | 0.00083 ± 0.00012
326.92 K | 0.00099 ± 0.00012
328.89 K | 0.00117 ± 0.00012
330.88 K | 0.0014 ± 0.00012
332.86 K | 0.00166 ± 0.00013
334.86 K | 0.00201 ± 0.00014
336.84 K | 0.00241 ± 0.00015
338.82 K | 0.00284 ± 0.00016
340.8 K | 0.00336 ± 0.00018
342.8 K | 0.00398 ± 0.0002
344.8 K | 0.0047 ± 0.00022
346.77 K | 0.00547 ± 0.00024
348.77 K | 0.0064 ± 0.00028
350.75 K | 0.00753 ± 0.00032
352.74 K | 0.00861 ± 0.00036
354.74 K | 0.01013 ± 0.00041
356.7 K | 0.01168 ± 0.00047
358.72 K | 0.01359 ± 0.00053
360.66 K | 0.01572 ± 0.00056
362.68 K | 0.01812 ± 0.0006
364.63 K | 0.02093 ± 0.00064
366.62 K | 0.02394 ± 0.00068
368.59 K | 0.0275 ± 0.00074
370.59 K | 0.03148 ± 0.0008
372.57 K | 0.03612 ± 0.00087
374.56 K | 0.04095 ± 0.00095
376.53 K | 0.04725 ± 0.001
378.51 K | 0.05325 ± 0.0011
380.49 K | 0.06051 ± 0.0013
382.47 K | 0.06884 ± 0.0014
384.46 K | 0.07804 ± 0.0015
386.43 K | 0.08821 ± 0.0017
388.4 K | 0.101 ± 0.0019

[2], Crystal
Details | vapor or sublimation pressure [kPa]
324.88 K | 0.0005 ± 0.00011
326.83 K | 0.00063 ± 0.00011
328.93 K | 0.0008 ± 0.00011
330.82 K | 0.00098 ± 0.00011
332.75 K | 0.00121 ± 0.00012
334.8 K | 0.00152 ± 0.00012
336.82 K | 0.00189 ± 0.00012
338.85 K | 0.00235 ± 0.00012
340.81 K | 0.00284 ± 0.00013
342.75 K | 0.00348 ± 0.00013
344.79 K | 0.00426 ± 0.00014
345.79 K | 0.00471 ± 0.00015
346.8 K | 0.00528 ± 0.00016
347.77 K | 0.00575 ± 0.00016
348.76 K | 0.00631 ± 0.00017

Details | Triple point temperature [K]
[2], Crystal | 347.41 ± 0.39
